In PMC10436550, “Subacute toxicity evaluations of LPM3480392 in rats, a full µ-opioid receptor biased agonist” (Frontiers in Pharmacology, 2023):
Where two headings read alike, the source gives them in different places.

Assay: Toxicokinetics, plasma LPM3480392 after intravenous administration
Assay type: in vivo, Sprague Dawley (SD) rats
Conditions: for concentration at 2 min / AUC(0-t): Sprague-Dawley, rat, plasma; for concentration at 2 min: intravenous; for AUC(0-t): iv
Experimental: Blood samples from animals in LPM3480392 groups were collected at predose and 2 min, 30 min, 1 h and 4 h postdose of the 1st dosing on Days 1 and 28; at 2 min and 4 h postdose of the 2nd dosing on Days 1 and 28; at 2 min, 1 h and 4 h postdose the 3rd dosing on Days 1 and 28. Animals in control group were sampled at predose and 2 min postdose of the 1st dosing on Days 1 and 28. Approximately 0.36 mL of blood was collected from the jugular vein of surviving TK animals at each time point. Whole blood samples were anticoagulated with EDTA-K2 and centrifuged at 2°C–8°C and 1800 × g for 10 min. The harvested plasma was stored below −66°C before the analysis. LC-MS/MS methods (liquid chromatograph/mass spectrometer) were used to detect concentrations of LPM3480392 at each time point. TK parameters (AUC, Cmax, Tmax) were calculated by Phoenix WinNonlin (Pharsight) 8.2. The detection instruments include ultra-performance liquid chromatography (Waters, United States ACQUITY UPLC I -CLASS) and triple quadrupole tandem mass spectrometer (Waters, United States, Xevo TQ-S).

Fc1ccc([C@]2(CCNCc3cccc(Cl)c3)CCO[C@]3(CCOC3)C2)nc1 [LPM3480392]
Accumulation after 28-day repeated dosing (0.6–2.4 mg/kg/day): No accumulation
Gender difference of mean AUC0–12h in plasma (0.6–2.4 mg/kg/day): no apparent gender difference
concentration at 2 min (both sexes, 0.6 mg/kg/day, 0.6 mg/kg/day iv, 1st dosing day, F + M, read-out: C2min (The 1st dosing)): 88.3 ± 18.8 ng/mL
concentration at 2 min (both sexes, 0.6 mg/kg/day, 0.6 mg/kg/day iv, 1st dosing day, F + M, read-out: C2min (The 2nd dosing)): 68.4 ± 12.8 ng/mL
concentration at 2 min (both sexes, 0.6 mg/kg/day, 0.6 mg/kg/day iv, 1st dosing day, F + M, read-out: C2min (The 3rd dosing)): 60.1 ± 10.4 ng/mL
concentration at 2 min (both sexes, 0.6 mg/kg/day, 0.6 mg/kg/day iv, 28th dosing day, F + M, read-out: C2min (The 1st dosing)): 87.2 ± 14.7 ng/mL
concentration at 2 min (both sexes, 0.6 mg/kg/day, 0.6 mg/kg/day iv, 28th dosing day, F + M, read-out: C2min (The 2nd dosing)): 75.4 ± 10.2 ng/mL
concentration at 2 min (both sexes, 0.6 mg/kg/day, 0.6 mg/kg/day iv, 28th dosing day, F + M, read-out: C2min (The 3rd dosing)): 73.9 ± 10.9 ng/mL
concentration at 2 min (both sexes, 1.2 mg/kg/day, 1.2 mg/kg/day iv, 1st dosing day, F + M, read-out: C2min (The 1st dosing)): 175 ± 18.6 ng/mL
concentration at 2 min (both sexes, 1.2 mg/kg/day, 1.2 mg/kg/day iv, 1st dosing day, F + M, read-out: C2min (The 2nd dosing)): 155 ± 29.4 ng/mL
concentration at 2 min (both sexes, 1.2 mg/kg/day, 1.2 mg/kg/day iv, 1st dosing day, F + M, read-out: C2min (The 3rd dosing)): 148 ± 27 ng/mL
concentration at 2 min (both sexes, 1.2 mg/kg/day, 1.2 mg/kg/day iv, 28th dosing day, F + M, read-out: C2min (The 1st dosing)): 179 ± 23.2 ng/mL
concentration at 2 min (both sexes, 1.2 mg/kg/day, 1.2 mg/kg/day iv, 28th dosing day, F + M, read-out: C2min (The 2nd dosing)): 140 ± 31 ng/mL
concentration at 2 min (both sexes, 1.2 mg/kg/day, 1.2 mg/kg/day iv, 28th dosing day, F + M, read-out: C2min (The 3rd dosing)): 149 ± 24.6 ng/mL
concentration at 2 min (both sexes, 2.4 mg/kg/day, 2.4 mg/kg/day iv, 1st dosing day, F + M, read-out: C2min (The 1st dosing)): 330 ± 27.6 ng/mL
concentration at 2 min (both sexes, 2.4 mg/kg/day, 2.4 mg/kg/day iv, 1st dosing day, F + M, read-out: C2min (The 2nd dosing)): 290 ± 23.1 ng/mL
concentration at 2 min (both sexes, 2.4 mg/kg/day, 2.4 mg/kg/day iv, 1st dosing day, F + M, read-out: C2min (The 3rd dosing)): 229 ± 43.6 ng/mL
concentration at 2 min (both sexes, 2.4 mg/kg/day, 2.4 mg/kg/day iv, 28th dosing day, F + M, read-out: C2min (The 1st dosing)): 351 ± 61.7 ng/mL
concentration at 2 min (both sexes, 2.4 mg/kg/day, 2.4 mg/kg/day iv, 28th dosing day, F + M, read-out: C2min (The 2nd dosing)): 323 ± 89.2 ng/mL
concentration at 2 min (both sexes, 2.4 mg/kg/day, 2.4 mg/kg/day iv, 28th dosing day, F + M, read-out: C2min (The 3rd dosing)): 320 ± 34.2 ng/mL
AUC(0-t) (both sexes, 0.6 mg/kg/day, 0.6 mg/kg/day iv, 1st dosing day, F + M, read-out: AUC0–12h): 315 ± 43.7 ng·h/mL
AUC(0-t) (both sexes, 0.6 mg/kg/day, 0.6 mg/kg/day iv, 28th dosing day, F + M, read-out: AUC0–12h): 349 ± 38.2 ng·h/mL
AUC(0-t) (both sexes, 0.6 mg/kg/day, female + male, 0.6 mg/kg/day, Day 1, read-out: Mean AUC0–12h): 315 ng·h/mL
AUC(0-t) (both sexes, 0.6 mg/kg/day, female + male, 0.6 mg/kg/day, Day 28, read-out: Mean AUC0–12h): 349 ng·h/mL
AUC(0-t) (both sexes, 1.2 mg/kg/day, 1.2 mg/kg/day iv, 1st dosing day, F + M, read-out: AUC0–12h): 663 ± 114 ng·h/mL
AUC(0-t) (both sexes, 1.2 mg/kg/day, 1.2 mg/kg/day iv, 28th dosing day, F + M, read-out: AUC0–12h): 680 ± 74.5 ng·h/mL
AUC(0-t) (both sexes, 1.2 mg/kg/day, female + male, 1.2 mg/kg/day, Day 1, read-out: Mean AUC0–12h): 663 ng·h/mL
AUC(0-t) (both sexes, 1.2 mg/kg/day, female + male, 1.2 mg/kg/day, Day 28, read-out: Mean AUC0–12h): 680 ng·h/mL
AUC(0-t) (both sexes, 2.4 mg/kg/day, 2.4 mg/kg/day iv, 1st dosing day, F + M, read-out: AUC0–12h): 1250 ± 93.6 ng·h/mL
AUC(0-t) (both sexes, 2.4 mg/kg/day, 2.4 mg/kg/day iv, 28th dosing day, F + M, read-out: AUC0–12h): 1490 ± 169 ng·h/mL
AUC(0-t) (both sexes, 2.4 mg/kg/day, female + male, 2.4 mg/kg/day, Day 1, read-out: Mean AUC0–12h): 1250 ng·h/mL
AUC(0-t) (both sexes, 2.4 mg/kg/day, female + male, 2.4 mg/kg/day, Day 28, read-out: Mean AUC0–12h): 1490 ng·h/mL
Mean AUC0–12h ratio, Day 28 and Day 1 (female + male, 1.2 mg/kg/day): 1.0
Mean AUC0–12h ratio, Day 28 and Day 1 (female + male, 2.4 mg/kg/day): 1.2
concentration at 2 min (female, 0.6 mg/kg/day, 0.6 mg/kg/day iv, 1st dosing day, F, read-out: C2min (The 1st dosing)): 78.4 ± 10.9 ng/mL
concentration at 2 min (female, 0.6 mg/kg/day, 0.6 mg/kg/day iv, 1st dosing day, F, read-out: C2min (The 2nd dosing)): 66.2 ± 12.4 ng/mL
concentration at 2 min (female, 0.6 mg/kg/day, 0.6 mg/kg/day iv, 1st dosing day, F, read-out: C2min (The 3rd dosing)): 55.5 ± 8.94 ng/mL
concentration at 2 min (female, 0.6 mg/kg/day, 0.6 mg/kg/day iv, 28th dosing day, F, read-out: C2min (The 1st dosing)): 90.1 ± 8.8 ng/mL
concentration at 2 min (female, 0.6 mg/kg/day, 0.6 mg/kg/day iv, 28th dosing day, F, read-out: C2min (The 2nd dosing)): 73 ± 12.6 ng/mL
concentration at 2 min (female, 0.6 mg/kg/day, 0.6 mg/kg/day iv, 28th dosing day, F, read-out: C2min (The 3rd dosing)): 68.5 ± 11.8 ng/mL
concentration at 2 min (female, 1.2 mg/kg/day, 1.2 mg/kg/day iv, 1st dosing day, F, read-out: C2min (The 1st dosing)): 181 ± 24.8 ng/mL
